Results published in the supplement of paper PMC10307832.

What was measured:
Experiment in all cases: relative viability (nuclei count vs DMSO), 5 days (fraction); higher = more cells survive
Doramapimod + Olaparib = compound: Cc1ccc(-n2nc(C(C)(C)C)cc2NC(=O)Nc2ccc(OCCN3CCOCC3)c3ccccc23)cc1 [Doramapimod] + O=C(c1cc(Cc2n[nH]c(=O)c3ccccc23)ccc1F)N1CCN(C(=O)C2CC2)CC1 [Olaparib] (partner 8 µM)
Summary of the method: (§1)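 Each reported value is a median over duplicate plates. It expresses relative viability: treated-well nuclei count divided by vehicle-well nuclei count. Lung cancer cell lines in 1536-well plates were dosed by pin tool a day after seeding, alone with one drug or with a fixed anchor-drug dose plus five library-drug doses (not always all listed) in √10 steps, and nuclei were counted after 5 days.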

RAF265 + Decitabine = compound: Cn1c(Nc2ccc(C(F)(F)F)cc2)nc2cc(Oc3ccnc(-c4ncc(C(F)(F)F)[nH]4)c3)ccc21 [RAF265] + Nc1ncn([C@H]2C[C@H](O)[C@@H](CO)O2)c(=O)n1 [Decitabine] (partner 2 µM)
Summary of the method: as §1

RAF265 + Lapatinib = compound: Cn1c(Nc2ccc(C(F)(F)F)cc2)nc2cc(Oc3ccnc(-c4ncc(C(F)(F)F)[nH]4)c3)ccc21 [RAF265] + CS(=O)(=O)CCNCc1ccc(-c2ccc3ncnc(Nc4ccc(OCc5cccc(F)c5)c(Cl)c4)c3c2)o1 [Lapatinib] (partner 2 µM)
Summary of the method: as §1

Doramapimod + Luminespib = compound: Cc1ccc(-n2nc(C(C)(C)C)cc2NC(=O)Nc2ccc(OCCN3CCOCC3)c3ccccc23)cc1 [Doramapimod] + CCNC(=O)c1noc(-c2cc(C(C)C)c(O)cc2O)c1-c1ccc(CN2CCOCC2)cc1 [Luminespib] (partner 0.01 µM)
Summary of the method: as §1

Row | Cell Line | relative viability (Doramapimod + Olaparib; first compound 0.02 µM) | relative viability (Doramapimod + Olaparib; first compound 0.06325 µM) | relative viability (Doramapimod + Olaparib; first compound 0.2 µM) | relative viability (Doramapimod + Olaparib; first compound 0.6325 µM) | relative viability (Doramapimod + Olaparib; first compound 2 µM) | relative viability (RAF265 + Decitabine; first compound 0.01 µM) | relative viability (RAF265 + Decitabine; first compound 0.03162 µM) | relative viability (RAF265 + Decitabine; first compound 0.1 µM) | relative viability (RAF265 + Decitabine; first compound 0.3162 µM) | relative viability (RAF265 + Decitabine; first compound 1 µM) | relative viability (RAF265 + Lapatinib; first compound 0.01 µM) | relative viability (RAF265 + Lapatinib; first compound 0.03162 µM) | relative viability (RAF265 + Lapatinib; first compound 0.1 µM) | relative viability (RAF265 + Lapatinib; first compound 0.3162 µM) | relative viability (RAF265 + Lapatinib; first compound 1 µM) | relative viability (Doramapimod + Luminespib; first compound 0.02 µM) | relative viability (Doramapimod + Luminespib; first compound 0.06325 µM) | relative viability (Doramapimod + Luminespib; first compound 0.2 µM) | relative viability (Doramapimod + Luminespib; first compound 0.6325 µM) | relative viability (Doramapimod + Luminespib; first compound 2 µM)
1 | NCI-H1651 | 0.203 | 0.19 | 0.17 | 0.204 | 0.194 | 0.675 | 0.632 | 0.424 | 0.589 | 0.54 | 0.931 | 0.797 | 0.864 | 0.669 | 0.644 | 0.76 | 0.863 | 0.87 | 0.93 | 0.758
2 | NCI-H1666 | 0.844 | 0.743 | 0.751 | 0.775 | 0.748 | 0.851 | 0.915 | 0.71 | 0.722 | 0.694 | 1.06 | 0.629 | 0.856 | 0.791 | 0.53 | 1.02 | 1.06 | 1.06 | 1.06 | 1
3 | NCI-H1734 | 0.572 | 0.595 | 0.587 | 0.573 | 0.497 | 0.515 | 0.424 | 0.47 | 0.41 | 0.304 | 1.08 | 0.854 | 0.866 | 0.806 | 0.485 | 0.227 | 0.259 | 0.214 | 0.17 | 0.18
4 | NCI-H1755 | 0.865 | 0.85 | 0.847 | 0.811 | 0.829 | 0.693 | 0.661 | 0.728 | 0.723 | 0.642 | 1.06 | 1.06 | 1.03 | 0.974 | 0.622 | 0.354 | 0.426 | 0.411 | 0.431 | 0.22
5 | NCI-H1792 | 0.408 | 0.459 | 0.457 | 0.486 | 0.268 | 0.462 | 0.506 | 0.472 | 0.324 | 0.204 | 0.928 | 0.843 | 0.946 | 0.913 | 0.593 | 0.396 | 0.345 | 0.385 | 0.413 | 0.356
6 | NCI-H1793 | 0.741 | 0.816 | 0.768 | 1.08 | 0.821 | 0.554 | 0.463 | 0.438 | 0.332 | 0.277 | 0.652 | 0.658 | 0.631 | 0.296 | 0.512 | 0.157 | 0.174 | 0.144 | 0.23 | 0.161
7 | NCI-H1915 | 0.285 | 0.287 | 0.252 | 0.254 | 0.233 | 0.262 | 0.278 | 0.258 | 0.236 | 0.193 | 0.968 | 0.92 | 0.909 | 0.715 | 0.371 | 0.58 | 0.821 | 0.793 | 0.9 | 0.712
8 | NCI-H1944 | 0.394 | 0.434 | 0.438 | 0.409 | 0.371 | 0.445 | 0.496 | 0.398 | 0.384 | 0.317 | 0.79 | 0.966 | 0.924 | 0.75 | 0.562 | 0.626 | 0.777 | 0.718 | 0.769 | 0.655
9 | NCI-H1975 | 0.717 | 0.85 | 0.864 | 0.768 | 0.82 | 0.403 | 0.364 | 0.308 | 0.263 | 0.254 | 0.809 | 0.791 | 0.618 | 0.469 | 0.412 | 0.173 | 0.192 | 0.207 | 0.258 | 0.266
10 | NCI-H1993 | 0.983 | 0.908 | 1.14 | 1.07 | 0.794 | 0.615 | 0.644 | 0.561 | 0.544 | 0.624 | 0.789 | 0.833 | 0.995 | 0.908 | 0.967 | 1.85 | 0.87 | 0.64 | 0.975 | 0.744
11 | NCI-H2009 | 0.669 | 0.697 | 0.669 | 0.712 | 0.622 | 0.43 | 0.376 | 0.377 | 0.459 | 0.335 | 1.01 | 0.941 | 0.85 | 0.885 | 0.691 | 1.05 | 1.17 | 1.12 | 1.23 | 1.04
12 | NCI-H2023 | 0.546 | 0.534 | 0.491 | 0.563 | 0.456 | 0.26 | 0.208 | 0.198 | 0.215 | 0.176 | 0.905 | 0.77 | 1.13 | 0.579 | 0.727 | 0.656 | 0.77 | 0.74 | 0.929 | 0.614
13 | NCI-H2085 | 0.886 | 0.844 | 0.756 | 0.871 | 0.823 | 0.547 | 0.506 | 0.571 | 0.587 | 0.59 | 0.777 | 0.709 | 0.806 | 0.843 | 0.717 | 0.411 | 0.601 | 0.409 | 0.46 | 0.463
14 | NCI-H2087 | 0.562 | 0.577 | 0.525 | 0.675 | 0.481 | 0.287 | 0.257 | 0.251 | 0.188 | 0.147 | 0.964 | 0.874 | 0.837 | 0.833 | 0.684 | 0.174 | 0.215 | 0.195 | 0.158 | 0.234
15 | NCI-H2126 | 0.768 | 0.925 | 0.989 | 0.962 | 0.94 | 0.607 | 0.56 | 0.563 | 0.573 | 0.412 | 0.765 | 0.732 | 0.718 | 0.756 | 0.662 | 0.832 | 0.906 | 0.964 | 1.03 | 0.702
16 | NCI-H2170 | 0.596 | 0.643 | 0.57 | 0.588 | 0.605 | 0.482 | 0.439 | 0.499 | 0.366 | 0.386 | 0.278 | 0.306 | 0.284 | 0.296 | 0.287 | 0.649 | 0.754 | 0.64 | 0.825 | 0.638
